In US20240130944A1, “LRAT INHIBITORS FOR TREATING SKIN AGEING” (DSM IP Assets B.V., priority 2021, published 2024):
Values belong to the compound of their own block, whether it stands above or below them.

Legend:
recombinant LRAT enzyme = molecular target: T1, recombinant LRAT enzyme (Homo sapiens, UniProt O95237); assay: LRAT inhibition assay; type: biochemical; conditions: inhibitor concentration 100 [μm]; relative to non-inhibited control reaction
T1 construct: purchased Abnova H00009227-PO1
T1 sequence (O95237 1-230): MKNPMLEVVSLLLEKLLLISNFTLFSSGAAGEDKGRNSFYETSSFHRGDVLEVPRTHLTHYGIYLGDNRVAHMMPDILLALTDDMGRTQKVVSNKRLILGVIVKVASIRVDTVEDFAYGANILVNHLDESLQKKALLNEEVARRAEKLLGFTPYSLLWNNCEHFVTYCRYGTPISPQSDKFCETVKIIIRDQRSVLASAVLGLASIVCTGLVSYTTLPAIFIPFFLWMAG
Description: The following buffer was prepared and stored at 4° C.: 0.05 M potassium phosphate, 2.5 mM dithioerythritol, pH 7.0(PO4/DTE). On the day of the assay, 1 mg BSA per mL of buffer was added to give a P04/DTE/BSA working buffer. Retinol substrate (Fluke, 1 mM) was prepared in acetonitrile (Riedel-de-Haen, Chromasolv) and stored in amber bottles under nitrogen gas at −20° C. Solutions of 4 mM dilauroyl phosphatidyl choline in ethanol were prepared and stored at −20° C. Inhibitors were prepared as 10 mM stock solutions according their solubilities in H2O, ethanol, acetonitrile, DMSO or acetic acid. The quenching solution was prepared using pure ethanol containing 50 μg/mL butylhydroxytoluene (Aldrich, BHT) A pentane solution containing 50 μg/mL BHT was used for the extractions.
To a 2 dram glass vial, the following were added in order: […] buffer to give a total volume of 500 μL, 5 μL acyl donor (dilauroyl phosphatidyl choline), 5 μL inhibitor or solvent blank (10 mM stock or further dilutions) followed by 2 μg recombinant LRAT enzyme (Abnova, H00009227-PO1). The mixture was incubated for 5 min. at 37° C. to equilibrate the reaction temperature and then 5 μL of a 1 mM retinol solution was added. The vials were capped, vortexed for 5 seconds and incubated for 60 minutes at 37° C. The reaction was quenched by adding 0.5 mL of a ethanol/BHT quenching solution. The retinoids were extracted by adding 1 mL pentane/BHT, vortexing the tubes for several seconds and centrifuging the tubes at 4000 rpm in a bench-top centrifuge for 5 min. to quickly separate the layers. The upper pentane layer was removed into a clean vial, and the aqueous layer re-extracted twice with another 1 mL pentane/BHT, as described above. […] The dried residue was stored at −20° C. and directly analyzed by HPLC. The amount of retinyl laurate was quantified for LRAT activity by integration of the HPLC or UPLC signal as described below. […]
Two HPLC protocols were used for retinoid analysis. The separation of retinol and retinol esters was performed with a reverse-phase analytical column (Waters Symmetry (R), 75×4.6 mm, 3.5 μm; Eluent A: 0.07% trifluoroacetic acid TFA in water, B: 0.07% TFA in acetonitrile (AcN), linear gradient from 1% B to 99% B in 6 min, 24 min on 99% B) or ACQUITY UPLC BEH Phenyl 1.7 μm 2.1×50 mm (0.02% TFA in water and eluent B, 0.02% TFA in AcN with a gradient of 2% to 99% B in 0.9 min, 99% B for 1 min, from 99% to 2% B in 0.1 min and flow rate 0.5 ml/min at 40° C. The eluate was monitored with a PDA detector for absorbance at 325 nm. Quantification of the retinol and retinylester peak was based on references retinoic acid and retinyl acetate (Fluke). The inhibition [%] was calculated relative to the product yield from the non-inhibited control reaction.

Collagen III = Collagen III immunostaining on living human skin explants; type: cell-based; set-up: key: 0 = unchanged; (+) = very slight increased; + = slight increased; ++ = moderate increased; +++ = fairly clear increased; ++++ = clear increased; conditions: topical
Description: (§1) On an abdoplasty coming from a person with a type II phototype, 51 circular skin explants of 11±1 mm in diameter were prepared. The explants were kept for survival in BEM culture medium (BIO-EC's Explants Medium, Longjumeau, France) at 37° C. in a humid, 5% CO2 atmosphere
(§2) Each morning on day 0, 1, 4 and 6 the test products (except retinol) were applied topically on the basis of […] (2 mg/cm2) of the concerned skin explants and spread using a small spatula. Each evening on day 0, 1, 4, 6 the retinol was applied topically on the basis of 2 μl/ explants (2 mg/cm2) of the concerned skin explants and spread using a small spatula. The vehicle V (DMSO 100%) was applied topically (same protocol as for products) in the morning and in the evening on day0, 1, 4, 6. The culture medium was refreshed on dayl, 4 and 6.
(§3) On day 0, 3 explants from the batch at day 0 were collected and cut in two parts. Half was fixed in buffered formalin solution and half was frozen at −80° C. On day 8, 3 explants from each experimental condition were collected and processed in the same way as on day 0.
(§4) After fixation for 24 hours in buffered formalin, the samples were dehydrated and impregnated in paraffin using a Leica PEARL dehydration automat. The samples were embedded using a Leica EG 1160 embedding station. 5-μm-thick sections were made using a Leica RM 2125 Minot-type microtome, and the sections were mounted on Superfrost® histological glass slides. The frozen samples were cut at 7-μm thickness with a Leica CM 3050 cryostat. The sections were then mounted on silanized glass slides Superfrost® Plus. The microscopical observations were realized using a Leica DMLB or Olympus BX43 microscope. Pictures were digitized with a numeric DP72 Olympus camera with cellSens storing software.
The staining was assessed by microscopical observation

[1] = tested on: living human skin explants; assay: Epidermal thickness on living human skin explants; type: cell-based; set-up: key: 0 = unchanged; (+) = very slight increased; + = slight increased; ++ = moderate increased; +++ = fairly clear increased; ++++ = clear increased; conditions: topical
Description: as §1, §2, §3, §4
The cell viability of the epidermal and dermal structures was controlled on formalin-fixed paraffin-embedded (FFPE) skin sections after to Masson's trichrome staining, Goldner variant. The cell viability was assessed by microscopical observation.

[2] = LRAT inhibitor 0.005% with Retinol 0.05%
[3] = LRAT inhibitor 0.005%, no retinol
[4] = LRAT inhibitor 0.01% with Retinol 0.05%
[5] = LRAT inhibitor 0.01%, no retinol
[6] = LRAT inhibitor 0.1% with Retinol 0.05%

LRAT inhibition, Inhibition [%] (recombinant LRAT enzyme): 6.8%
Compound: CS(=O)(=O)N1CCN(C(=O)C(N)Cc2cccc(C(=N)N)c2)CC1.Cl.Cl (centres unmarked) [H-(D,L)-F(3AMD)-Pzd(N—SO2Me) × 2 HCl, H-(D,L)-F(3AMD)-Pzd(N—SO2Me), reference compound]

LRAT inhibition, Inhibition [%] (recombinant LRAT enzyme): 89.9%
Compound: CCCCCCCCS(=O)(=O)NC(Cc1cccc(C(=N)N)c1)C(=O)N1CCN(S(=O)(=O)CCCCCCCC)CC1 (centres unmarked) [OCTS-(D,L)-F(3AMD)-Pzd(N—SO2Oct)]

Compound: CC1=C(/C=C/C(C)=C/C=C/C(C)=C/CO)C(C)(C)CCC1 [Retinol, reference compound]
change of Collagen III level (staining) compared to control (vehicle only) on day 8 (Collagen III; Retinol 0.05% alone): +
change of Epidermis thickness compared to control (vehicle only) on day 8 ([1]; Retinol 0.05% alone): +

LRAT inhibition, Inhibition [%] (recombinant LRAT enzyme): 0%
Compound: DODS-(L)-F(4NH2)-Pzd(N—SO2Me) [reference compound]

Compound: CCCCCCCCCCS(=O)(=O)NC(Cc1cccc(C(=N)N)c1)C(=O)N1CCN(S(C)(=O)=O)CC1 (centres unmarked) [LRAT-IA, DECS-(L)-F(3AMD)-Pzd(N-SO2Me)]
change of Collagen III level (staining) compared to control (vehicle only) on day 8 (Collagen III; [2]): +
change of Collagen III level (staining) compared to control (vehicle only) on day 8 (Collagen III; [3]): 0
change of Collagen III level (staining) compared to control (vehicle only) on day 8 (Collagen III; [4]): ++
change of Collagen III level (staining) compared to control (vehicle only) on day 8 (Collagen III; [5]): 0
change of Collagen III level (staining) compared to control (vehicle only) on day 8 (Collagen III; [6]): +++
change of Collagen III level (staining) compared to control (vehicle only) on day 8 (Collagen III; LRAT inhibitor 0.1%, no retinol): ++
change of Epidermis thickness compared to control (vehicle only) on day 8 [1, 2]: +
change of Epidermis thickness compared to control (vehicle only) on day 8 [1, 3]: (+)
change of Epidermis thickness compared to control (vehicle only) on day 8 [1, 4]: +
change of Epidermis thickness compared to control (vehicle only) on day 8 [1, 5]: +
change of Epidermis thickness compared to control (vehicle only) on day 8 [1, 6]: +

LRAT inhibition, Inhibition [%] (recombinant LRAT enzyme): 38.7%
Compound: CC(=O)N1CCN(C(=O)[C@H](Cc2cccc(C(=N)N)c2)NS(=O)(=O)c2ccc3ccccc3c2)CC1 [2NAPS-(L)-F(3AMD)-Pzd(N—Ac)]
